Test [1] has as its target T1, PAS domain-containing serine/threonine-protein kinase (Homo sapiens, UniProt Q96RG2). In words: Inhibition of purified full-length human PASK expressed in insect cells using MBP protein substrate incubated for 10 mins before ATP addition and measured after 1 hr by kinase-Glo luminescent kinase assay. (Kinase-Glo measures the ATP left after a reaction by luminescence.)

For test [2], the target named is T1, PAS domain-containing serine/threonine-protein kinase. In words: Inhibition of purified human PASK kinase domain expressed in insect cells using MBP protein substrate incubated for 10 mins before ATP addition and measured after 1 hr by kinase-Glo luminescent kinase assay.

T1 sequence (Q96RG2 whole entry, the tested form may be a part): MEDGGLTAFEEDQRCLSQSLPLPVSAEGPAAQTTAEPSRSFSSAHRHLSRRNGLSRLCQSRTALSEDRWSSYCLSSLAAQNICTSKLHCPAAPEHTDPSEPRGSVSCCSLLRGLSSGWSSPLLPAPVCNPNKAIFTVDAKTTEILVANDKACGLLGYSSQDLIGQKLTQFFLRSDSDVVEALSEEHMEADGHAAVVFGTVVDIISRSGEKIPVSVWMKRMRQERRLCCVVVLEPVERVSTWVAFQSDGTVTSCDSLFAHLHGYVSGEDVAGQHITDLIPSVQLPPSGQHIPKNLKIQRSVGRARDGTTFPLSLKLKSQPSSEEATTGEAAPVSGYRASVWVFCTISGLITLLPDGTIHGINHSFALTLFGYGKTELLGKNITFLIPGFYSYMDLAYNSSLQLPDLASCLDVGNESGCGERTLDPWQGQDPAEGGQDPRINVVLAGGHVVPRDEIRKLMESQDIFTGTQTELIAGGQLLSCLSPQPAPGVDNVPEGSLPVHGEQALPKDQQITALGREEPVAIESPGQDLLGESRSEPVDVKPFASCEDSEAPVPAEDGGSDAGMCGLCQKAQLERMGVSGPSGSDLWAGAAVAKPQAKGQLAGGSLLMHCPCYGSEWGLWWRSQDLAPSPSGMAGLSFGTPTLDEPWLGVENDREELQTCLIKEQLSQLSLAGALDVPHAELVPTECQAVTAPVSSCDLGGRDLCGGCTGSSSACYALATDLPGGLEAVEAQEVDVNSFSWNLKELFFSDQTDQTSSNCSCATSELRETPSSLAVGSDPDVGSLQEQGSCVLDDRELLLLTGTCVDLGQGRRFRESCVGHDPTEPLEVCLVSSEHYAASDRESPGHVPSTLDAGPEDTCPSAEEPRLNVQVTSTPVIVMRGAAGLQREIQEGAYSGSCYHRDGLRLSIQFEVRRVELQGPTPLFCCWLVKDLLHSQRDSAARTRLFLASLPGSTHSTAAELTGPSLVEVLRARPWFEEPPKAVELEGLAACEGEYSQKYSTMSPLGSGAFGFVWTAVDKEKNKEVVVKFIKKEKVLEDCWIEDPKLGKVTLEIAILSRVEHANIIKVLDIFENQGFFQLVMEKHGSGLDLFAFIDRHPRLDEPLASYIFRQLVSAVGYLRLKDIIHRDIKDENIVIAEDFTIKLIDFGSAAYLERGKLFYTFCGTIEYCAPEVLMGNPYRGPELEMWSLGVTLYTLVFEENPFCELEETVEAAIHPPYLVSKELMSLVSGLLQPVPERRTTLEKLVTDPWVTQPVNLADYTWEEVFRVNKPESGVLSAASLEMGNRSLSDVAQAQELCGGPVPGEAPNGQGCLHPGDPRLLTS

For the compound `Cc1nn2c(=O)cc(-c3ccc(Cl)cc3)[nH]c2c1-c1ccccc1`, the 50% inhibitory concentration (IC50) in test [1] and in test [2] was at most 10 µM in each case.
As for `COc1ccc(Cc2nn3c(=O)cc(C)[nH]c3c2-c2ccccc2)cc1`, the half-maximal inhibitory concentration (IC50) in test [1] and in test [2] was at least 10 µM throughout.
On to `COCc1cc(=O)n2nc(-c3ccc(Cl)cc3)cc2[nH]1`, for which the half-maximal inhibitory concentration (IC50) in test [1] and in test [2] was at least 10 µM each time.
`COCc1cc(=O)n2nc(Cc3ccccc3)c(-c3ccc(OC)cc3)c2[nH]1`: the half-inhibitory concentration (IC50) in test [1] and in test [2] was at least 10 µM throughout.
On to `Cc1nn2c(=O)cc(-c3ccccc3)[nH]c2c1-c1ccc(F)cc1`, for which the IC50 in test [1] and in test [2] was at least 10 µM in each case.
Regarding `Cc1nn2c(=O)cc(-c3ccc([N+](=O)[O-])cc3)[nH]c2c1-c1ccc(Cl)cc1`, the IC50 in test [1] and in test [2] was at most 10 µM throughout.
Turning to `O=c1cc(Cc2ccccc2)[nH]c2c(-c3ccccc3)c(Cc3ccccc3)nn12`, the IC50 in test [1] and in test [2] was at least 10 µM in each case.
Take `CCCc1cc(=O)n2nc(Cc3ccccc3)c(-c3ccc(Cl)cc3)c2[nH]1`: the IC50 in test [1] and in test [2] was at least 10 µM each time.
`CCc1c(C)[nH]c2c(-c3ccccc3)c(Cc3ccc(OC)cc3)nn2c1=O`: the IC50 in test [1] and in test [2] was at least 10 µM in each case.
Regarding `CCc1c(C)[nH]c2c(-c3ccc(Cl)cc3)c(C)nn2c1=O`, the concentration for half-maximal inhibition (IC50) in test [1] and in test [2] was at least 10 µM throughout.
In the case of `O=c1cc(-c2ccccc2)[nH]c2c(-c3cccc4ccccc34)c(Cc3ccccc3)nn12`, the IC50 in test [1] and in test [2] was at least 10 µM each time.
As for `Cc1[nH]c2c(-c3ccc(Cl)cc3)cnn2c(=O)c1Cc1ccccc1`, the 50% inhibitory concentration (IC50) in test [1] and in test [2] was at most 10 µM throughout.
Regarding `COc1ccccc1-c1cc(=O)n2nc(C)c(-c3ccccc3)c2[nH]1`, the IC50 in test [1] and in test [2] was at most 10 µM each time.
Consider `COCc1cc(=O)n2nc(Cc3ccccc3)c(-c3ccc(Cl)cc3)c2[nH]1`, for which the 50% inhibitory concentration (IC50) in test [1] and in test [2] was at least 10 µM each time.
In the case of `CCCc1cc(=O)n2nc(C)c(-c3ccc(Cl)cc3)c2[nH]1`, the half-maximal inhibitory concentration (IC50) in test [1] and in test [2] was at least 10 µM each time.
In the case of `COc1ccc(-c2cc(=O)n3nc(C)c(-c4ccccc4)c3[nH]2)cc1`, the 50% inhibitory concentration (IC50) in test [1] and in test [2] was at most 10 µM in each case.
As for `Cc1ccc(-c2cc(=O)n3nc(C)c(-c4ccccc4)c3[nH]2)cc1`, the IC50 in test [1] and in test [2] was at least 10 µM in each case.
For the compound `Cc1nn2c(=O)c3c([nH]c2c1-c1ccc(Cl)cc1)CCC3`, the IC50 in test [1] and in test [2] was at least 10 µM in each case.
Take `COc1ccc(-c2c(C)nn3c(=O)cc(Cc4ccccc4)[nH]c23)cc1`: the IC50 in test [1] and in test [2] was at least 10 µM throughout.
Take `COc1ccc(-c2cc(=O)n3nc(C)c(-c4ccc(F)cc4)c3[nH]2)cc1`: the half-maximal inhibitory concentration (IC50) in test [1] and in test [2] was at most 10 µM each time.
As for `COc1ccc(Cc2nn3c(=O)cc(-c4ccccc4)[nH]c3c2-c2ccccc2)cc1`, the half-inhibitory concentration (IC50) in test [1] and in test [2] was at least 10 µM each time.
Regarding `O=c1cc(-c2ccc([N+](=O)[O-])cc2)[nH]c2c(-c3ccc(Cl)cc3)c(Cc3ccccc3)nn12`, the IC50 in test [1] and in test [2] was at most 10 µM in each case.

Broadly, the IC50 is the concentration needed to halve the response being measured.

Source of the values: ChEMBL document CHEMBL3714729, “Heterocyclic compounds for the inhibition of pask” (2012).
